The test system of the assay is mice with diet-induced obesity (DIO). Nature of the assay: Chronic efficacy study in diet-induced obesity (DIO) mice. Format: in vivo, C57BL6/N mice. How it is done: Samples for MNA were analyzed employing a fit-for-purpose LC-MS/MS method. PE-Sciex API-4000 triple quadrupole (PerkinElmerSciex Instruments, Boston, MA) mass spectrometer was employed for this analysis. Samples (5 µL) were injected onto Kinetex HILIC (50 × 4.6 mm, 2.6 µm; Phenomenex, Torrance, CA, USA) column connected to Shimadzu VP (Shimadzu, Japan) LC system. The gradient mobile phase mixture of 0.2% formic acid and acetonitrile was delivered at a flow rate of 0.45 ml min-1 into the mass spectrometer electrospray ionization (ESI) chamber. Quantitation was achieved by MS/MS detection in positive ion mode for MNA and internal standard (d4–MNA). Detection of the ions was performed in the multiple reaction monitoring (MRM) mode, monitoring the transition of the m/z 137 precursor ion to the m/z 92 product ion for MNA and m/z 141 precursor ion to the m/z 84 product ion for d4-MNA (internal standard).
A simple protein precipitation extraction method was followed for extraction of N-methylnicotinamide from plasma and various tissue homogenate samples. The tissue samples were homogenized with 1:3 proportions of phosphate buffer saline (PBS) and this homogenate was used for N-Methylnicotinamide determinations. To an aliquot of ~50 μL of plasma/ liver homogenate/ adipose tissue homogenate samples ~300 µl of acetonitrile containing IS (d4-MNA) solution was added, followed by vortex for ~3 minutes and centrifuged for 10 minutes at 14,000 rpm. The supernatant was separated and transferred to pre-labeled HPLC vials and analyzed by LC-MS/MS system.
Male C57BL6/N (Vivo Bio Tech Ltd, India), ob/ob (B6.V-Lepob/OlaHsd) and its lean control (Envigo laboratories Inc, USA) and db/db (BKS.Cg- + Leprdb/ + Leprdb/OlaHsd) and its lean control (Envigo laboratories Inc, USA) were housed in individually ventilated cages (n = 5/cage) under standard laboratory conditions. The study room environment was maintained at a temperature of 21–24 °C and, relative humidity at 40–70%. The animal rooms were maintained under 12 h light and dark cycle. Animals were provided with ad libitum access to water and food (except where noted otherwise, e.g. during fasting prior for glucose tolerance tests, fasting prior to terminal sacrifice). Animals were acclimatized for 1 week before initiation of studies. For Diet induced obesity (DIO) mice study, C57BL6/N mice were maintained on rodents chow diet (Teklad; Harlan) or HFD (60% Kcal; Research diet) for 14 weeks before study initiation and throughout the study period. ob/ob and db/db mice and their lean controls were maintained on rodents chow diet (Teklad; Harlan). All the experiments were approved by Institutional Animal Ethics Committee (IAEC) of Jubilant Biosys Ltd, India.
Lean control + Vehicle and HFD + Vehicle Control groups (G1 and G2) mice were administered with vehicle. Dose formulations of HFD + JBSNF-000088, 50 mg kg^−1, po, bid were administered at dose volume of 5 mL kg^−1 body weight to G3 mice. Similar pattern was followed for ob/ob mice and db/db mice studies. The dose volume for individual animals was calculated based on the most recently recorded body weight during the study period. […] Cage side observations of animals for visible clinical signs, was carried out once daily throughout the study period. Individual animal body weights were recorded twice weekly during the study period.
The ob/ob mice were 12 weeks of age at the start of the study and db/db mice were 8 weeks of age at the start of the study. DIO mice were 20 weeks of age at the start of the study. In each study, non-diabetic lean mice comprised the control group which received vehicle (0.5% w/v HEC and 0.5% v/v Tween 80) and obese or diabetic mice were randomly assigned to two groups based on body weight and unfasted glucose which received either vehicle (0.5% w/v HEC and 0.5% v/v Tween 80) or JBSNF-000088, 50 mg kg^−1, po, bid for 30 days.

As to `COc1ccc(C(N)=O)cn1` [JBSNF-000088, 6-methoxynicotinamide], where the note is “50 mg kg^−1 b.i.d. p.o., four weeks, vs vehicle”, the “body weight (%)” value was “statistically significant reduction”. For the same molecule, the cumulative food intake result (50 mg kg^−1 b.i.d. p.o., vs vehicle) is listed as “comparable”. For the same molecule, the fed plasma insulin entry (day 14, p < 0.01 vs HFD control) is “trend to a reduction in fed plasma insulin that was statistically significant on day 14”. Moreover, under “day 21, p < 0.01 vs vehicle control”, the fed blood glucose result is “statistically significant reduction”. For the same molecule, the oral glucose tolerance result (day 28, normalized to chow control group) was “statistically significant improvement”. The “AUC blood glucose (OGTT)” value (day 28, p < 0.001 vs HFD control) was “Significantly lower”. Further, for the setting “p < 0.0001 vs HFD control”, the “MNA levels in visceral WAT” value is “statistically significant reduction”; the “plasma insulin at 0 and 15 minutes of OGTT” value was “statistically significant lower”. For the same molecule, under “p < 0.0001 vs vehicle-treated HFD controls”, the HOMA-IR index entry is given as “statistically significant improvement”. Also, the plasma triglyceride entry (p < 0.001 vs HFD control, data not shown) was “statistically significant reduction”. Also, the liver triglyceride entry (p < 0.05 vs HFD control, data not shown) is “statistically significant reduction”.

For the origin of these results see PMC5826917, “A small molecule inhibitor of Nicotinamide N-methyltransferase for the treatment of metabolic disorders” (Scientific Reports, 2018).
